Measured values published in patent US10538554B2, “Peptides and uses therefor as antiviral agents” (priority 2015, dated 2020).
Where two headings read alike, the source gives them in different places. Bridge positions count the residues as written; N and C are the ends. Square brackets hold non-standard residues; d marks the D form. Peptide text beside a SMILES is read from it.

Key:
H9N2 A/Iran/16/2000 = conditions: 48 h
[1] = test system: H1N1 A1/Malaysia/302/1954; conditions: A1/Malaysia/302/1954, 48 h
H3N8 A/Miami/2/63 = conditions: A/Miami/2/63, 48 h
H3N2 A/HK/8/1968 = conditions: A/HK/8/1968, 48 h

| Compound | % inhibition H9N2 (H9N2 A/Iran/16/2000; 500 μM) | % inhibition H1N1 ([1]; 500 μM) | % inhibition H3N8 (H3N8 A/Miami/2/63; 500 μM) | % inhibition H3N2 (H3N2 A/HK/8/1968; 500 μM) | % inhibition H9N2 (H9N2 A/Iran/16/2000; 50 μM) | % inhibition H1N1 ([1]; 50 μM) | % inhibition H3N8 (H3N8 A/Miami/2/63; 50 μM) | % inhibition H3N2 (H3N2 A/HK/8/1968; 50 μM) |
| --- | --- | --- | --- | --- | --- | --- | --- | --- |
| C[C@H](O)[C@H]1NC(=O)[C@H](N)CSSC[C@H](C(=O)O)NC(=O)[C@@H](CC(N)=O)NC(=O)[C@@H](C)NC(=O)[C@@H](Cc2ccccc2)NC(=O)[C@@H](CCCNC(=N)N)NC(=O)[C@@H](CO)NC(=O)[C@@H](CCCCN)NC1=O [PSP 1, H-ctksrfanc-OH] (H-[dC][dT][dK][dS][dR][dF][dA][dN][dC]-OH; disulfide 1-9) | 36.4% | 29.4% | 79.4% | 70.4% | – | – | – | – |
| C[C@H](O)[C@H]1NC(=O)[C@H](N)CSSC[C@H](C(=O)O)NC(=O)[C@@H](CC(N)=O)NC(=O)[C@@H](CC(=O)O)NC(=O)[C@@H](Cc2ccccc2)NC(=O)[C@@H](CCCNC(=N)N)NC(=O)[C@@H](CO)NC(=O)[C@@H](CCCCN)NC1=O [PSP 3, H-ctksrfdnc-OH] (H-[dC][dT][dK][dS][dR][dF][dD][dN][dC]-OH; disulfide 1-9) | >50% | 29.4% | 67% | 74.1% | – | – | – | – |
| C[C@H](O)[C@H]1NC(=O)[C@H](N)CSSC[C@H](C(=O)O)NC(=O)[C@@H](CC(N)=O)NC(=O)[C@@H](CCC(=O)O)NC(=O)[C@@H](Cc2ccccc2)NC(=O)[C@@H](CCCNC(=N)N)NC(=O)[C@@H](CO)NC(=O)[C@@H](CCCCN)NC1=O [PSP 4, H-ctksrfenc-OH] (H-[dC][dT][dK][dS][dR][dF][dE][dN][dC]-OH; disulfide 1-9) | – | 52.9% | 64% | 22.7% | – | – | – | – |
| C[C@H](O)[C@H]1NC(=O)[C@H](N)CSSC[C@H](C(=O)O)NC(=O)[C@@H](CC(N)=O)NC(=O)[C@@H](Cc2ccccc2)NC(=O)[C@@H](Cc2ccccc2)NC(=O)[C@@H](CCCNC(=N)N)NC(=O)[C@@H](CO)NC(=O)[C@@H](CCCCN)NC1=O [PSP 5, H-ctksrffnc-OH] (H-[dC][dT][dK][dS][dR][dF][dF][dN][dC]-OH; disulfide 1-9) | – | 47.1% | 77.3% | 45.5% | – | – | – | – |
| C[C@H](O)[C@H]1NC(=O)[C@H](N)CSSC[C@H](C(=O)O)NC(=O)[C@@H](CC(N)=O)NC(=O)[C@@H](Cc2c[nH]cn2)NC(=O)[C@@H](Cc2ccccc2)NC(=O)[C@@H](CCCNC(=N)N)NC(=O)[C@@H](CO)NC(=O)[C@@H](CCCCN)NC1=O [PSP 7, H-ctksrfhnc-OH] (H-[dC][dT][dK][dS][dR][dF][dH][dN][dC]-OH; disulfide 1-9) | 31.8% | 23.5% | 76.3% | 81.8% | – | – | – | – |
| CC[C@@H](C)[C@H]1NC(=O)[C@@H](Cc2ccccc2)NC(=O)[C@@H](CCCNC(=N)N)NC(=O)[C@@H](CO)NC(=O)[C@@H](CCCCN)NC(=O)[C@@H]([C@H](C)O)NC(=O)[C@H](N)CSSC[C@H](C(=O)O)NC(=O)[C@@H](CC(N)=O)NC1=O [PSP 8, H-ctksrfinc-OH] (H-[dC][dT][dK][dS][dR][dF][dI][dN][dC]-OH; disulfide 1-9) | 90.9% | 79.4% | 83.5% | 90.9% | – | – | – | – |
| CC(C)C[C@H]1NC(=O)[C@@H](Cc2ccccc2)NC(=O)[C@@H](CCCNC(=N)N)NC(=O)[C@@H](CO)NC(=O)[C@@H](CCCCN)NC(=O)[C@@H]([C@H](C)O)NC(=O)[C@H](N)CSSC[C@H](C(=O)O)NC(=O)[C@@H](CC(N)=O)NC1=O [PSP 10, H-ctksrflnc-OH] (H-[dC][dT][dK][dS][dR][dF][dL][dN][dC]-OH; disulfide 1-9) | 50% | 88.2% | 82.5% | 95.5% | – | – | – | – |
| C[C@H](O)[C@H]1NC(=O)[C@H](N)CSSC[C@H](C(=O)O)NC(=O)[C@@H](CC(N)=O)NC(=O)[C@H]2CCCN2C(=O)[C@@H](Cc2ccccc2)NC(=O)[C@@H](CCCNC(=N)N)NC(=O)[C@@H](CO)NC(=O)[C@@H](CCCCN)NC1=O [PSP 13, H-ctksrfpnc-OH] (H-[dC][dT][dK][dS][dR][dF][dP][dN][dC]-OH; disulfide 1-9) | 18.2% | 32.7% | 70.1% | 29.6% | – | – | – | – |
| C[C@H](O)[C@H]1NC(=O)[C@H](N)CSSC[C@H](C(=O)O)NC(=O)[C@@H](CC(N)=O)NC(=O)[C@@H](CCCNC(=N)N)NC(=O)[C@@H](Cc2ccccc2)NC(=O)[C@@H](CCCNC(=N)N)NC(=O)[C@@H](CO)NC(=O)[C@@H](CCCCN)NC1=O [PSP 15, H-ctksrfrnc-OH] (H-[dC][dT][dK][dS][dR][dF][dR][dN][dC]-OH; disulfide 1-9) | – | 11.5% | 61.9% | 3.7% | – | – | – | – |
| CC(C)[C@H]1NC(=O)[C@@H](Cc2ccccc2)NC(=O)[C@@H](CCCNC(=N)N)NC(=O)[C@@H](CO)NC(=O)[C@@H](CCCCN)NC(=O)[C@@H]([C@H](C)O)NC(=O)[C@H](N)CSSC[C@H](C(=O)O)NC(=O)[C@@H](CC(N)=O)NC1=O [PSP 18, H-ctksrfvnc-OH] (H-[dC][dT][dK][dS][dR][dF][dV][dN][dC]-OH; disulfide 1-9) | 45.5% | 51.9% | 78.4% | 70.4% | – | – | – | – |
| C[C@H](O)[C@H]1NC(=O)[C@H](N)CSSC[C@H](C(=O)O)NC(=O)[C@@H](CC(N)=O)NC(=O)[C@@H](Cc2c[nH]c3ccccc23)NC(=O)[C@@H](Cc2ccccc2)NC(=O)[C@@H](CCCNC(=N)N)NC(=O)[C@@H](CO)NC(=O)[C@@H](CCCCN)NC1=O [PSP 19, H-ctksrfwnc-OH] (H-[dC][dT][dK][dS][dR][dF][dW][dN][dC]-OH; disulfide 1-9) | – | 28.8% | 78.4% | 92.6% | – | – | – | – |
| C[C@H](O)[C@H]1NC(=O)[C@H](N)CSSC[C@H](C(=O)O)NC(=O)[C@@H](CC(N)=O)NC(=O)[C@@H](Cc2ccc(O)cc2)NC(=O)[C@@H](Cc2ccccc2)NC(=O)[C@@H](CCCNC(=N)N)NC(=O)[C@@H](CO)NC(=O)[C@@H](CCCCN)NC1=O [PSP 20, H-ctksrfync-OH] (H-[dC][dT][dK][dS][dR][dF][dY][dN][dC]-OH; disulfide 1-9) | 63.6% | 73.5% | 81.4% | 95.5% | – | – | – | – |
| CC[C@@H](C)[C@H]1NC(=O)[C@@H](Cc2ccccc2)NC(=O)[C@@H](CCCNC(=N)N)NC(=O)[C@@H](C)NC(=O)[C@@H](Cc2c[nH]c3ccccc23)NC(=O)[C@@H]([C@H](C)O)NC(=O)[C@H](NC(=O)[C@H](CCCCN)NC(=O)[C@H](CCCCN)NC(=O)[C@H](CCCNC(=N)N)NC(=O)[C@@H](N)CCCNC(=N)N)CSSC[C@H](C(=O)O)NC(=O)[C@@H](CC(N)=O)NC1=O [PSP III B1, H-RRKKctwarfinc-OH] (H-RRKK[dC][dT][dW][dA][dR][dF][dI][dN][dC]-OH; disulfide 5-13) | – | – | – | – | 95% | 85% | 96% | 92% |
